“And” between values parts separate entries of the source, which are not always exact repeats. Equal values may be shown once. Toxic doses and inconclusive results are not listed. Rule for the calls: active = survival T/C of 150% or more; inactive = T/C below 125% in these data.
Tested on: CD2F1 mice, L1210 leukemia ip, survival T/C
Assay: NCI In Vivo Anticancer Drug Screen. Data for tumor model L1210 Leukemia (intraperitoneal) in CD2F1 (CDF1) mice
Details: endpoint: mean survival time, higher = longer survival
Procedure: The antitumor activity of compounds was measured in mice bearing transplantable tumors. Survival or tumor size were measured and the results are expressed as the measurement made in the treated group (T) divided by the measurement made in the vehicle treated control group (C). The tumor model used in this assay is L1210 Leukemia (intraperitoneal) in CD2F1 (CDF1) mice

[1] = dose: 50.0 mg/kg/injection, schedule: Q01DX001 (ip), vehicle: saline
[2] = dose: 100.0 mg/kg/injection, schedule: Q01DX001 (ip), vehicle: saline
[3] = dose: 100.0 mg/kg/injection, schedule: Q01DX001 (ip), vehicle: saline with Tween-80
[4] = dose: 200.0 mg/kg/injection, schedule: Q01DX001 (ip), vehicle: saline with Tween-80
[5] = dose: 400.0 mg/kg/injection, schedule: Q01DX001 (ip), vehicle: saline with Tween-80
[6] = dose: 12.5 mg/kg/injection, schedule: Q01DX009 (ip), vehicle: saline with Tween-80
[7] = dose: 50.0 mg/kg/injection, schedule: Q01DX009 (ip), vehicle: saline with Tween-80
[8] = dose: 100.0 mg/kg/injection, schedule: Q01DX009 (ip), vehicle: saline with Tween-80

Measured: T/C

COc1cc(C[C@H]2c3cc(OC)c(OC)cc3CCN2C)c(Oc2cc3c(cc2OC)-c2c(OC)c(OC)cc4c2[C@H](C3)N(C)CC4)cc1OC
inactive: dose: 2.5 mg/kg/injection, schedule: Q03HX016 (ip), vehicle: saline 92 % of control | dose: 2.5 mg/kg/injection, schedule: Q03HX024 (ip), vehicle: saline 94 % of control | dose: 5.0 mg/kg/injection, schedule: Q03HX008 (ip), vehicle: saline 95 % of control | dose: 5.0 mg/kg/injection, schedule: Q03HX016 (ip), vehicle: saline 93 % of control | dose: 5.0 mg/kg/injection, schedule: Q03HX024 (ip), vehicle: saline 91 % of control | dose: 6.25 mg/kg/injection, schedule: Q01DX009 (ip), vehicle: saline 95 % of control | dose: 10.0 mg/kg/injection, schedule: Q03HX008 (ip), vehicle: saline 93 % of control | dose: 10.0 mg/kg/injection, schedule: Q03HX016 (ip), vehicle: saline 91 % of control | dose: 10.0 mg/kg/injection, schedule: Q03HX024 (ip), vehicle: saline 92 % of control | dose: 12.5 mg/kg/injection, schedule: Q01DX009 (ip), vehicle: saline 94 % of control | dose: 12.5 mg/kg/injection, schedule: Q01DX009 (oral), vehicle: saline 98 % of control | dose: 20.0 mg/kg/injection, schedule: Q03HX008 (ip), vehicle: saline 95 % of control | dose: 20.0 mg/kg/injection, schedule: Q03HX016 (ip), vehicle: saline 95 % of control | dose: 20.0 mg/kg/injection, schedule: Q03HX024 (ip), vehicle: saline 96 % of control | dose: 25.0 mg/kg/injection, schedule: Q01DX009 (ip), vehicle: saline 94 % of control | dose: 25.0 mg/kg/injection, schedule: Q01DX009 (oral), vehicle: saline 101 % of control | dose: 25.0 mg/kg/injection, schedule: Q04DX003 (ip), vehicle: saline 98 % of control | dose: 25.0 mg/kg/injection, schedule: Q08DX002 (ip), vehicle: saline 92 % of control | dose: 40.0 mg/kg/injection, schedule: Q03HX008 (ip), vehicle: saline 97 % of control | dose: 40.0 mg/kg/injection, schedule: Q03HX016 (ip), vehicle: saline 93 % of control | dose: 40.0 mg/kg/injection, schedule: Q03HX024 (ip), vehicle: saline 89 % of control | [1] 87 % of control | dose: 50.0 mg/kg/injection, schedule: Q01DX009 (ip), vehicle: saline 94 % of control | dose: 50.0 mg/kg/injection, schedule: Q01DX009 (oral), vehicle: saline 96 % of control | dose: 50.0 mg/kg/injection, schedule: Q04DX003 (ip), vehicle: saline 98 % of control | dose: 50.0 mg/kg/injection, schedule: Q08DX002 (ip), vehicle: saline 94 % of control | dose: 80.0 mg/kg/injection, schedule: Q03HX008 (ip), vehicle: saline 98 % of control | [2] 87 % of control | dose: 100.0 mg/kg/injection, schedule: Q01DX001 (oral), vehicle: saline 101 % of control | dose: 100.0 mg/kg/injection, schedule: Q01DX009 (ip), vehicle: saline 94 % of control | dose: 100.0 mg/kg/injection, schedule: Q01DX009 (oral), vehicle: saline 106 % of control | dose: 100.0 mg/kg/injection, schedule: Q04DX003 (ip), vehicle: saline 95 % of control | dose: 100.0 mg/kg/injection, schedule: Q08DX002 (ip), vehicle: saline 92 % of control | dose: 200.0 mg/kg/injection, schedule: Q01DX001 (oral), vehicle: saline 101 % of control | dose: 200.0 mg/kg/injection, schedule: Q01DX009 (oral), vehicle: saline 109 % of control | dose: 200.0 mg/kg/injection, schedule: Q04DX003 (ip), vehicle: saline 105 % of control | dose: 200.0 mg/kg/injection, schedule: Q08DX002 (ip), vehicle: saline 94 % of control | dose: 400.0 mg/kg/injection, schedule: Q01DX001 (ip), vehicle: saline 89 % of control | dose: 400.0 mg/kg/injection, schedule: Q01DX001 (oral), vehicle: saline 103 % of control | dose: 400.0 mg/kg/injection, schedule: Q08DX002 (ip), vehicle: saline 90 % of control | dose: 800.0 mg/kg/injection, schedule: Q01DX001 (ip), vehicle: saline 90 % of control | dose: 800.0 mg/kg/injection, schedule: Q01DX001 (oral), vehicle: saline 104 % of control | dose: 1600.0 mg/kg/injection, schedule: Q01DX001 (oral), vehicle: saline 102 % of control

COC(=O)c1cncn1C1c2ccccc2-c2ccccc21
inactive: dose: 50.0 mg/kg/injection, schedule: Q04DX002 (ip), vehicle: saline with Tween-80 103 % of control | [3] 86 % of control | dose: 100.0 mg/kg/injection, schedule: Q04DX002 (ip), vehicle: saline with Tween-80 98 % of control | [4] 91 % of control | dose: 200.0 mg/kg/injection, schedule: Q04DX002 (ip), vehicle: saline with Tween-80 95 % of control | [5] 91 % of control

O=C(O)c1ccc(N/N=C/C(F)(F)F)cc1
inactive: dose: 1.87 mg/kg/injection, schedule: Q01DX009 (ip), vehicle: saline 107 % of control | dose: 3.75 mg/kg/injection, schedule: Q01DX009 (ip), vehicle: saline 105 % of control | dose: 6.25 mg/kg/injection, schedule: Q01DX001 (ip), vehicle: saline with Tween-80 97 % of control | dose: 7.5 mg/kg/injection, schedule: Q01DX009 (ip), vehicle: saline 105 % of control | dose: 12.5 mg/kg/injection, schedule: Q01DX001 (ip), vehicle: saline with Tween-80 94 % of control | [6] 107 % of control | dose: 15.0 mg/kg/injection, schedule: Q01DX009 (ip), vehicle: saline 109 % of control | dose: 25.0 mg/kg/injection, schedule: Q01DX001 (ip), vehicle: saline with Tween-80 94 % of control | dose: 25.0 mg/kg/injection, schedule: Q01DX009 (ip), vehicle: saline with Tween-80 109 % of control | dose: 50.0 mg/kg/injection, schedule: Q01DX001 (ip), vehicle: saline with Tween-80 101 % of control | [7] 101 % of control | [3] 95 % of control | [4] 89 % of control | [5] 118 % of control

OCc1ccc[n+](CCc2c[nH]c3ccccc23)c1
inactive: [7] 104 % of control | [8] 95 % of control

COc1c(C)c2c(c(O)c1CC(=O)Nc1ccccc1C(=O)O)C(=O)OC2
inactive: dose: 100.0 mg/kg/injection, schedule: Q04DX002 (ip), vehicle: saline 96 % of control | dose: 200.0 mg/kg/injection, schedule: Q04DX002 (ip), vehicle: saline 100 % of control | dose: 400.0 mg/kg/injection, schedule: Q04DX002 (ip), vehicle: saline 91 % of control

COc1ccc(/C=N\NC(=O)CNC(=O)Nc2cccc(C(F)(F)F)c2)cc1OC
inactive: [6] 87 % of control | [8] 96 % of control | dose: 200.0 mg/kg/injection, schedule: Q01DX009 (ip), vehicle: saline with Tween-80 96 % of control

Cc1ccc(S(=O)(=O)OC2C(O)OCC3OC(C)(C)OC32)cc1 (stereo not given)
inactive: dose: 100.0 mg/kg/injection, schedule: Q04DX003 (ip), vehicle: saline with Tween-80 98 % of control | dose: 200.0 mg/kg/injection, schedule: Q04DX003 (ip), vehicle: saline with Tween-80 102 % of control | dose: 400.0 mg/kg/injection, schedule: Q04DX003 (ip), vehicle: saline with Tween-80 93 % of control

N#C/C=C/C#N
inactive: dose: 0.15 mg/kg/injection, schedule: Q01DX009 (ip), vehicle: saline 105 % of control | dose: 0.3 mg/kg/injection, schedule: Q01DX009 (ip), vehicle: saline 102 % of control | dose: 0.6 mg/kg/injection, schedule: Q01DX009 (ip), vehicle: saline 102 % of control

O=c1ccn(C2OC(CCl)C(O)C2O)c(=O)[nH]1 (stereo not given)
inactive: [1] 105 % of control | [2] 102 % of control | dose: 200.0 mg/kg/injection, schedule: Q01DX001 (ip), vehicle: saline 94 % of control

CCN(CC)c1ccc2cc(-c3nc4ccccc4n3C)c(=O)oc2c1
inactive: dose: 3.13 mg/kg/injection, schedule: Q01DX009 (ip), vehicle: Klucel (hydroxypropylcellulose) (HPC) 90 % of control | dose: 6.25 mg/kg/injection, schedule: Q01DX009 (ip), vehicle: Klucel (hydroxypropylcellulose) (HPC) 91 % of control and 93 % of control and 96 % of control | dose: 12.5 mg/kg/injection, schedule: Q01DX009 (ip), vehicle: Klucel (hydroxypropylcellulose) (HPC) 93 % of control and 96 % of control and 103 % of control | dose: 50.0 mg/kg/injection, schedule: Q01DX009 (ip), vehicle: Klucel (hydroxypropylcellulose) (HPC) 120 % of control and 121 % of control and 103 % of control

NC(=S)N=Nc1c(O)cc(O)c2[nH]c(=O)ccc12
inactive: [2] 109 % of control
